Like-named read-outs stand apart in the source and are kept apart here.
How the values were obtained:
[1] = tested on: HeLa; assay: Cytostatic assay, HeLa cells; type: cell-based; conditions: for CC50: Table 1, read-out: CC50 HeLa; for IC50: Table 6, read-out: IC50 HeLa
Text: (§1) The cell lines employed were L1210/0 (a leukemia cell line), FM3A/0 (a breast cancer cell line), Cem/0 (an acute lymphoblastic leukemia cell line) and HeLa (a cervical cell line).

[2] = tested on: L1210/0; assay: Cytostatic assay, L1210/0 cells; type: cell-based, murine; conditions: for IC50: read-out: IC50 L1210/0
Text: as §1

[3] = tested on: Cem/0; assay: Cytostatic assay, CEM/0 cells; type: cell-based, human; conditions: for CC50: Table 1, read-out: CC50 Cem/0; for IC50: Table 6, read-out: IC50 Cem/0
Text: as §1

[4] = tested on: L1210/TK^−; assay: Cytostatic assay, thymidine kinase-deficient L1210/TK^− cells; type: cell-based, murine; conditions: for CC50: L1210, Table 1, read-out: CC50 L1210/TK^−; for IC50: Table 6, read-out: IC50 L1210/TK^−
[5] = tested on: Cem/TK^−; assay: Cytostatic assay, thymidine kinase-deficient CEM/TK^− cells; type: cell-based, human; conditions: for CC50: Table 1, read-out: CC50 Cem/TK^−; for IC50: Table 6, read-out: IC50 Cem/TK^−
[6] = tested on: L1210.Hyor; assay: Cytostatic assay, Mycoplasma hyorhinis-infected L1210 cells; conditions: for % Retention: CC50 L1210 × 100 ÷ CC50 L1210/Hyor; for CC50: L1210, read-out: CC50 L1210/Hyor
Text: Murine leukaemia L1210/0 and human T-lymphocyte CEM/0 cells were obtained from the American Type Culture Collection (ATCC) (Rockville, Md.). Human glioblastoma U87 cells were kindly provided by Dr. E. Menue (Institut Pasteur, Paris, France). […] S. Eriksson (currently at Uppsala University, Uppsala, Sweden) and Prof A. Karlsson (Karolinska Institute, Stockholm, Sweden). […] All cells were maintained in Dulbecco's modified Eagle's medium (DMEM) (Invitrogen, Carlsbad, Calif.) with 10% foetal bovine serum (FBS) (Biochrom AG, Berlin, Germany), 10 mM Hepes and 1 mM Sodium Pyruvate (Invitrogen). Cells were grown at 37° C. in a humidified incubator with a gas phase of 5% CO2.
Monolayer cells (U87 and U87.Hyor) were seeded in 48-well microtiter plates (Nunc™, Roskilde, Denmark) at 10,000 cells/well. After 24 hours, an equal volume of fresh medium containing the test compounds was added. On day 5, cells were trypsinized and counted in a Coulter counter (Analis, Suarlée, Belgium). Suspension cells (L1210/0, L1210/TK^−, L1210.Hyor, CEM/0, CEM/TK^−) were seeded in 96-well microtiter plates (Nunc™) at 60,000 cells/well in the presence of a given amount of the test compounds. The cells were allowed to proliferate for 48 h (L1210) or 72 hours (CEM) and were then counted in a Coulter counter.
Samples were also assayed for their % retention of activity in mycoplasma infected cells.
The L1210/0 cell cultures were infected with the mycoplasma species M. hyorhinis (cells designated: L1210.Hyor).

[7] = tested on: HeLa/TK^−; assay: Cytostatic assay, HeLa/TK^− cells; type: cell-based; conditions: for CC50: Table 1, read-out: CC50 HeLa/TK^−; for IC50: Table 6, read-out: IC50 HeLa/TK^−
Text: as §1

[8] = Mus musculus, L1210/0, Table 1, read-out: CC50 L1210/0
[9] = Mus musculus, L1210/0, Table 2, mycoplasma negative cells, read-out: CC50 L1210
[10] = Mus musculus, L1210, read-out: IC50 L1210.Hyor
[11] = read-out: IC50 L1210.Hyor, Table 7

| SMILES | CC50 ([1]; Homo sapiens, HeLa) | IC50 ([1]; Homo sapiens, HeLa) | CC50 [2, 8] | CC50 [2, 9] | IC50 ([2]; Mus musculus, L1210/0, Table 6) | IC50 ([2]; Mus musculus, L1210/0, Table 7) | CC50 ([3]; Homo sapiens, CCRF-CEM) | IC50 ([3]; Homo sapiens, CCRF-CEM) | CC50 ([4]; Mus musculus) | IC50 ([4]; Mus musculus, L1210) | CC50 ([5]; Homo sapiens, CEM-TK(-)) | IC50(L1210.Hyor)/IC50(L1210/0) ([6]; Table 7) | IC50 [1] | IC50 ([2]; Table 6) | IC50 ([2]; Table 7) | IC50 [3] | IC50 [4] | IC50 [5] | IC50 [6, 11] | IC50 [7] | further results |
| --- | --- | --- | --- | --- | --- | --- | --- | --- | --- | --- | --- | --- | --- | --- | --- | --- | --- | --- | --- | --- | --- |
| CSCC[C@H](NP(=O)(OC[C@H]1O[C@@H](n2cc(F)c(=O)[nH]c2=O)CC1O)Oc1ccccc1)C(=O)OCc1ccccc1 (stereo partly drawn) [CPF 586, 5-Fluoro-2′-deoxyuridine-5′-O-[phenyl-(benzoxy-L-methioninyl)] phosphate] | 150 ± 20 nM | 150 ± 20 nM | 73 ± 35 nM | 100 nM | 73 ± 35 nM | 58 ± 35 nM | 280 ± 30 nM | 280 ± 30 nM | 4100 ± 1200 nM | 4100 ± 1200 nM | 25000 nM | 13 |  |  |  |  |  |  |  |  | IC50 ([5]; Homo sapiens, CEM-TK(-)): 25000 nM; % Retention [6]: 11%; CC50 ([6]; Mus musculus): 870 nM; IC50 [6, 10]: 760 ± 180 nM; CC50 ([7]; Homo sapiens, HeLa): 11000 ± 7000 nM; IC50 ([7]; Homo sapiens, HeLa): 11000 ± 7000 nM |
| O=C(OCc1ccccc1)[C@H](Cc1ccccc1)NP(=O)(OC[C@H]1O[C@@H](n2cc(F)c(=O)[nH]c2=O)CC1O)Oc1cccc2ccccc12 (stereo partly drawn) [CPF 587, 5-Fluoro-2′-deoxyuridine-5′-O-[1-naphthyl-(benzoxy-L-phenylalaninyl)]phosphate] | 160 ± 80 nM | 160 ± 80 nM | 12 ± 7 nM | 22 nM | 12 ± 7 nM | 21 ± 6.1 nM | 100 ± 30 nM | 100 ± 30 nM | 5600 ± 1300 nM | 5600 ± 1300 nM | 7200 ± 100 nM | 11 |  |  |  |  |  |  |  |  | IC50 ([5]; Homo sapiens, CEM-TK(-)): 7200 ± 100 nM; % Retention [6]: 0.5%; CC50 ([6]; Mus musculus): 4200 nM; IC50 [6, 10]: 230 ± 78 nM; CC50 ([7]; Homo sapiens, HeLa): 6800 ± 1500 nM; IC50 ([7]; Homo sapiens, HeLa): 6800 ± 1500 nM |
| C[C@H](NP(=O)(OC[C@H]1O[C@@H](n2cc(F)c(=O)[nH]c2=O)CC1O)Oc1cccc2ccccc12)C(=O)OCC(C)(C)C (stereo partly drawn) [CPF 588, 5-Fluoro-2′-deoxyuridine-5′-O-[1-naphthyl-(2,2-dimethylpropoxy-L-alaninyl)] phosphate] | 700 ± 110 nM | 700 ± 110 nM | 270 ± 110 nM | 237 nM | 270 ± 110 nM | 93 ± 33 nM | 490 ± 50 nM | 490 ± 50 nM | 1200 ± 700 nM | 1200 ± 700 nM | 6700 ± 1000 nM | 1.9 |  |  |  |  |  |  |  |  | IC50 ([5]; Homo sapiens, CEM-TK(-)): 6700 ± 1000 nM; % Retention [6]: 61%; CC50 ([6]; Mus musculus): 390 nM; IC50 [6, 10]: 180 ± 69 nM; CC50 ([7]; Homo sapiens, HeLa): 32000 ± 26000 nM; IC50 ([7]; Homo sapiens, HeLa): 32000 ± 26000 nM |
| CCCCOC(=O)[C@H](C)NP(=O)(OC[C@H]1O[C@@H](n2cc(F)c(=O)[nH]c2=O)CC1O)Oc1cccc2ccccc12 (stereo partly drawn) [CPF 589, 5-Fluoro-2′-deoxyuridine-5′-O-[1-naphthyl-(butoxy-L-alaninyl)] phosphate] | 120 ± 20 nM | 120 ± 20 nM | 22 ± 4 nM | 20 nM | 22 ± 4 nM | 9.5 ± 2.1 nM | 64 ± 7 nM | 64 ± 7 nM | 110 ± 60 nM | 110 ± 60 nM | 840 ± 600 nM | 2.2 |  |  |  |  |  |  |  |  | IC50 ([5]; Homo sapiens, CEM-TK(-)): 840 ± 600 nM; % Retention [6]: 32%; CC50 ([6]; Mus musculus): 63 nM; IC50 [6, 10]: 21 ± 7.1 nM; CC50 ([7]; Homo sapiens, HeLa): 2700 ± 1500 nM; IC50 ([7]; Homo sapiens, HeLa): 2700 ± 1500 nM |
| CC(C)CC(NP(=O)(OCC1OC(n2cc(F)c(=O)[nH]c2=O)CC1O)Oc1cccc2ccccc12)C(=O)OCc1ccccc1 (stereo not drawn) [Nap Bn Leu] |  |  |  |  |  |  |  |  |  |  |  | 1.7 | 80 ± 22 nM | 28 ± 4 nM | 29 ± 2.1 nM | 130 nM | 1500 ± 600 nM | 30000 ± 6000 nM | 48 ± 20 nM | 9400 ± 1400 nM |  |
| CSCCC(NP(=O)(OCC1OC(n2cc(F)c(=O)[nH]c2=O)CC1O)Oc1cccc2ccccc12)C(=O)OCc1ccccc1 (stereo not drawn) [Nap Bn Met] |  |  |  |  |  |  |  |  |  |  |  | 3.7 | 87 ± 17 nM | 72 ± 1 nM | 54 ± 13 nM | 190 ± 100 nM | 1900 ± 200 nM | 11000 ± 1000 nM | 200 ± 98 nM | 8300 nM |  |
| CCCCCCOC(=O)C(C)NP(=O)(OCC1OC(n2cc(F)c(=O)[nH]c2=O)CC1O)Oc1cccc2ccccc12 (stereo not drawn) [Nap Hex Ala] |  |  |  |  |  |  |  |  |  |  |  | 0.69 | 39 ± 18 nM | 7.2 nM | 3.2 ± 0.35 nM | 80 ± 20 nM | 76 ± 15 nM | 650 ± 340 nM | 2.2 ± 0.28 nM | 1800 ± 100 nM |  |
| CCCCCOC(=O)C(C)(C)NP(=O)(OCC1OC(n2cc(F)c(=O)[nH]c2=O)CC1O)Oc1cccc2ccccc12 (stereo not drawn) [Nap Pnt DMG] |  |  |  |  |  |  |  |  |  |  |  | 0.42 | 120 ± 30 nM | 37 ± 10 nM | 45 ± 2.1 nM | 140 nM | 300 ± 130 nM | 5400 ± 1100 nM | 19 ± 2.8 nM | 2300 ± 100 nM |  |
| CCCCCOC(=O)C(CC(C)C)NP(=O)(OCC1OC(n2cc(F)c(=O)[nH]c2=O)CC1O)Oc1cccc2ccccc12 (stereo not drawn) [Nap Pnt Leu] |  |  |  |  |  |  |  |  |  |  |  | 1.13 | 39 ± 14 nM | 17 ± 1 nM | 31 ± 2 nM | 71 ± 8 nM | 1200 ± 400 nM | 15000 ± 4000 nM | 35 ± 10 nM | 7500 ± 400 nM |  |
| CCCOC(=O)C(C)NP(=O)(OCC1OC(n2cc(F)c(=O)[nH]c2=O)CC1O)Oc1cccc2ccccc12 (stereo not drawn) [Nap Pr Ala] |  |  |  |  |  |  |  |  |  |  |  | 1.2 | 110 ± 30 nM | 21 ± 12 nM | 30 ± 0.35 nM | 140 ± 10 nM | 160 ± 70 nM | 1100 ± 200 nM | 36 ± 6.4 nM | 2500 ± 100 nM |  |
| CC(C)CC(NP(=O)(OCC1OC(n2cc(F)c(=O)[nH]c2=O)CC1O)Oc1ccccc1)C(=O)OCc1ccccc1 (stereo not drawn) [Ph Bn Leu] |  |  |  |  |  |  |  |  |  |  |  | 3.2 | 67 ± 42 nM | 44 ± 25 nM | 54 ± 2.1 nM | 240 ± 40 nM | 2000 ± 300 nM | 16000 ± 1000 nM | 170 ± 47 nM | 5600 ± 300 nM |  |
